Assay results published in patent US7772264B2, “Salt and polymorphs of a DPPIV inhibitor” (Hoffmann-La Roche Inc., priority 2005, dated 2010).
Structures can show the parent of a compound that is named as a salt.

Key:
[1] = target: T1, human DPP-IV (Homo sapiens, UniProt P27487); assay: DPP-IV activity assay (fluorogenic / colorimetric); type: biochemical; conditions: natural human DPP-IV from plasma pool or recombinant human DPP-IV; 37° C., pH 7.8
T1 construct: made in house; host or cells: Pichia pastoris (secreted, purified from the culture medium)
T1 sequence (P27487 31-766): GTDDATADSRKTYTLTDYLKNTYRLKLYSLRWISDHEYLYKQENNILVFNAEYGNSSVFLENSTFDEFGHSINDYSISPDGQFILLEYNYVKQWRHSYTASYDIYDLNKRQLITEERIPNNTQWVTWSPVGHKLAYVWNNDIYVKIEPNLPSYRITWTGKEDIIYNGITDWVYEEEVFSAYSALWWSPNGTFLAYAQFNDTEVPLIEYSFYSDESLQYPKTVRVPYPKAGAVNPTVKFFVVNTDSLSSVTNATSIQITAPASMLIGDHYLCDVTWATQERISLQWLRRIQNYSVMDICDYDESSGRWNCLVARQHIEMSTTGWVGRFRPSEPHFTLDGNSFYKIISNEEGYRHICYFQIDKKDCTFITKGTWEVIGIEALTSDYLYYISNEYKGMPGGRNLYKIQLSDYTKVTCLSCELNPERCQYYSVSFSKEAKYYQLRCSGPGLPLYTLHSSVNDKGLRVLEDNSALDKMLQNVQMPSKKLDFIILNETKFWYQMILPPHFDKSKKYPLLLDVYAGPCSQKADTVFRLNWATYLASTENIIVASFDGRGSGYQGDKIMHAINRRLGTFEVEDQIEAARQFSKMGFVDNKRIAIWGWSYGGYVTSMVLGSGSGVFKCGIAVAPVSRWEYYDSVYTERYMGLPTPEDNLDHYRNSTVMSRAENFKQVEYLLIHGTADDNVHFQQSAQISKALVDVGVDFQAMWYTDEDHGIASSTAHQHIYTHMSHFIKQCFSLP
Method: Activity of DPP-IV inhibitors are tested with natural human DPP-IV derived from a human plasma pool or with recombinant human DPP-IV. Human citrate plasma from different donors is pooled, filtered through a 0.2 micron membrane under sterile conditions and aliquots of 1 mL are shock frozen and stored at −120° C. until used. In the colorimetric DPP-IV assay 5 to 10 μL human plasma and in the fluorometric assay 1.0 μL of human plasma in a total assay volume of 100 μL is used as an enzyme source. The cDNA of the human DPP-IV sequence of amino acid 31- to 766, restricted for the N-terminus and the transmembrane domain, is cloned into pichia pastoris. […]
In the calorimetric assay H-Ala-Pro-pNA.HCl (Bachem L-1115) is used as a substrate. […] Fluorescence is detected in a Perkin Elmer Luminescence Spectrometer LS 50B at an excitation wavelength of 400 nm and an emission wavelength of 505 nm continuously every 15 seconds for 10 to 30 minutes. Initial rate constants are calculated by best fit linear regression. The absorption of pNA liberated from the calorimetric substrate is detected in a Packard SpectraCount at […] continuously every 2 minutes for 30 to 120 minutes. Initial rate constants are calculated by best fit linear regression. […]
IC50 determinations of test compounds are calculated by non-linear best fit regression of the DPP-IV inhibition of at least 5 different compound concentrations. […]

[2] = Hygroscopicity observation (water uptake and release of the crystal form); type: physicochemical; conditions: solid crystal form; XRPD and IR vary with humidity of the sample
Excerpt: It has been observed that the polymorph B is hygroscopic and that the X-ray powder diffraction pattern and the IR-spectrum of polymorph B can vary, depending on the humidity of the analyzed sample. Water uptake and release, respectively, result in systematic shifts of some peak positions in the X-ray powder diffraction pattern. The crystal form B is characterized by a set of peaks, as described above, that are not susceptible to peak shifts in a range larger than 0.2 degrees in 2-theta. Samples of polymorph B, which have been dried, e.g. by elevated temperature or in a dry atmosphere, show the same X-ray powder diffraction pattern. In the IR spectrum of polymorph B, variations of humidity of the sample are mainly observed in following regions: 3700-3300, 1250-1150, 1045-1000 970-955, 900-850 cm^−1. However, changes of humidity can also have an influence on the position of the peaks outside these ranges.

| SMILES | IC50 [1] [nM] | Ki [1] [nM] | hygroscopicity [2] |
| --- | --- | --- | --- |
| Cc1oc(-c2ccccc2)nc1CCNCC(=O)N1CCC[C@H]1C#N [(S)-1-{[2-(5-Methyl-2-phenyl-oxazol-4-yl)-ethylamino]-acetyl}-pyrrolidine-2-carbonitrile mesylate] | 75 | 80 |  |
| CS(=O)(=O)O.Cc1oc(-c2ccccc2)nc1CCNCC(=O)N1CCC[C@H]1C#N [polymorph B, (S)-1-{[2-(5-Methyl-2-phenyl-oxazol-4-yl)-ethylamino]-acetyl}-pyrrolidine-2-carbonitrile mesylate] |  |  | hygroscopic |
